Earlier results on one substance are cited in patent US20110178105A1, “CLINICAL BENEFITS OF EICOSAPENTAENOIC ACID IN HUMANS” (E.I. DU PONT DE NEMOURS AND COMPANY, priority 2010, published 2011).

For the series the following is noted: human, in vivo; cited from earlier work.

Regarding vitamin E, the “benefit in post-myocardial infarction patients” value is reported as “no benefit”.
